Assay results published in patent US20140066385A1, “METHOD FOR TREATING CANCER BY COMBINED USE OF DRUGS” (Astellas Pharma Inc., priority 2011, published 2014).

Tests used:
[1] = system: human ovarian cancer (MCAS); assay: Example 12: FK330 with paclitaxel in MCAS tumor-bearing mice; format: in vivo, nude mice; conditions: FK330 100 mg/kg bid p.o. + paclitaxel 10 mg/kg/day i.v. (5 days each cycle)
Method: (§1) The dose of FK330 is expressed in terms of the weight of a simple substance (non-hydrate). Paclitaxel was purchased from LC Laboratories, Inc. (Woburn, Mass., USA), and was used as paclitaxel.
(§2) FK330 was suspended (20 mg/mL) in a 0.5% aqueous methyl cellulose solution (0.5% MC), and was orally administered. Paclitaxel was prepared into a stock solution at 10 mg/mL with an ethanol/cremophor solution (mixed at 1:1), and then the stock solution was diluted to 1 mg/mL with physiological saline for injection (Otsuka Pharmaceutical Group) immediately before administration and was intravenously administered through the tail vein.
Human ovary cancer-derived MCAS (JCRB0240) was obtained from Health Science Research Resources Bank (HSRRB) and used. The cells were cultured under the conditions of 37° C. and 5% CO2 by using EMEM medium containing 20% fetal bovine serum (FBS). […]
(§3) The body weight and the tumor diameter, determined by using a digital caliper, were measured twice a week. The tumor volume was calculated from the calculation formula for ellipsoid volume of (major axis×[minor axis]^2×0.5).
The results are expressed as the mean value (Mean)±standard error (SEM). […]

[2] = target: inducible nitric oxide synthase (inducible NOS, iNOS) (Homo sapiens, UniProt P35228); conditions: reported in Non-Patent Document 1; cited from earlier work
[3] = system: human hormone-resistant prostatic cancer (PC-3); assay: Example 9: FK330 with paclitaxel in PC-3 tumor-bearing mice; format: in vivo, nude mice; conditions: FK330 100 mg/kg bid p.o. + paclitaxel 10 mg/kg/day i.v. multicycle
Method: as §1, §2
Human hormone-resistant prostatic cancer-derived PC-3 (CRL-1435) was obtained from American Type Culture Collection (VA, USA). […]
as §3
The results are expressed as the mean value (Mean)±standard error (SEM). […] Using the actual measured values of the tumor volume at each measurement time point, an unpaired statistical test (Student's t-test) of the difference between two groups was carried out between a single administration group and a combination use group. […]

[4] = system: ischemia/reperfusion injury in rat liver transplantation; conditions: reported in Non-Patent Documents 3 and 4; cited from earlier work

Sequence of inducible nitric oxide synthase (inducible NOS, iNOS) (P35228 whole entry): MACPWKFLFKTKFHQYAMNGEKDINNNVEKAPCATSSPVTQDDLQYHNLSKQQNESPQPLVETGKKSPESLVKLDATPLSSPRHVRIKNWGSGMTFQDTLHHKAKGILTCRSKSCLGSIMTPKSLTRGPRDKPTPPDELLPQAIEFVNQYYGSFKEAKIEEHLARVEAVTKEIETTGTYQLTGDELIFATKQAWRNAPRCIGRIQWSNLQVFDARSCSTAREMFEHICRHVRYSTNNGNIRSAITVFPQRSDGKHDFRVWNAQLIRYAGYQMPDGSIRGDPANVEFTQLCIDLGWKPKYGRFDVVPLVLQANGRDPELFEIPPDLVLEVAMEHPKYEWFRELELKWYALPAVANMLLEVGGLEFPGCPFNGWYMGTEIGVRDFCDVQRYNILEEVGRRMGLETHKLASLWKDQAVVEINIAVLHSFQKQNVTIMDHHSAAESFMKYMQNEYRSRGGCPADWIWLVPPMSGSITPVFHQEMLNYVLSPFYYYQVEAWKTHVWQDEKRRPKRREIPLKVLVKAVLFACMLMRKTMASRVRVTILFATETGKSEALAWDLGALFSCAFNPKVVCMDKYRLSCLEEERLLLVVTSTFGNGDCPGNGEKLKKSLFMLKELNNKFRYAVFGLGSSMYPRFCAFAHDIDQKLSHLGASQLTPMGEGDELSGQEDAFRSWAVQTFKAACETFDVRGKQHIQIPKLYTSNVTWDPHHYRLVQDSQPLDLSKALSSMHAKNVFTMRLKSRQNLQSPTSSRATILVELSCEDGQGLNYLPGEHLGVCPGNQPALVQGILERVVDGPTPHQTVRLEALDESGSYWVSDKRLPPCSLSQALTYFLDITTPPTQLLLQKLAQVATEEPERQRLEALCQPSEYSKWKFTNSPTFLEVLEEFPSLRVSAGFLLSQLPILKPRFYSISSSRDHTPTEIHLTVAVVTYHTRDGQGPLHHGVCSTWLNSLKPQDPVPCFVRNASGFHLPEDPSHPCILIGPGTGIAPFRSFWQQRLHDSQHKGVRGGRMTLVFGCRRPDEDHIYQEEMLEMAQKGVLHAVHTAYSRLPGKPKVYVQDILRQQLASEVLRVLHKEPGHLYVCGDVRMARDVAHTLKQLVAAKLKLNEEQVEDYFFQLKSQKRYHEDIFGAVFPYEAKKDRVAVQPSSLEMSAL

O=C(/C=C/c1ccc(Cl)cc1)N[C@@H](Cc1ccccn1)C(=O)NCC(=O)N1CCC(Oc2cc(C(F)(F)F)ncn2)CC1 [FK330, N^2-[(2E)-3-(4-chlorophenyl)-2-propenoyl]-N-[2-oxo-2-(4-{[6-(trifluoromethyl)pyrimidin-4-yl]oxy}piperidin-1-yl)ethyl]-3-pyridin-2-yl-L-alaninamide]
tumor volume reduction ratio compared with the paclitaxel-only group ([1]; Day 63, no significant difference): 61.5% | tumor volume reduction ratio compared with the paclitaxel-only group ([1]; Day 91, P<0.05): 86.0% | inducible nitric oxide synthase (iNOS) inhibitory activity [2]: excellent | tumor volume reduction ratio compared with the paclitaxel-only group ([3]; Day 30, P<0.05): 63.1% | tumor volume reduction ratio compared with the paclitaxel-only group ([3]; Day 55, P<0.001): 72.1% | efficacy for ischemia/reperfusion injury in rat liver transplantation [4]: effective
